The values that follow come from ChEMBL document CHEMBL1155382, “Bisleuconothine A, an eburnane-aspidosperma bisindole alkaloid from Leuconotis griffithii” (Bioorg Med Chem Lett, 2010).

As a reminder, the IC50 is the concentration needed to halve the response being measured. A higher IC50 goes with weaker potency in that assay.

The test system of assay [1] is MCF7. Nature of the assay: Inhibition of cell growth in human MCF7 cells. Format: functional, cell-based.
The subject of assay [2] is HCT-116. Nature of the assay: Cell cycle arrest in human HCT116 cells assessed as accumulation at G1 phase at 20 uM after 24 hrs. Format: functional.
Assay [3] relates to HCT-116. Nature of the assay: Cell cycle arrest in human HCT116 cells assessed as accumulation at G1 phase at 10 uM after 24 hrs. It counts as functional.
Assay [4] relates to HCT-116. Nature of the assay: Inhibition of cell growth in human HCT116 cells. It counts as functional, cell-based.
In assay [5] the test system is A549. Nature of the assay: Inhibition of cell growth in human A549 cells. It counts as functional, cell-based.
Assay [6] concerns HCT-116. Nature of the assay: Cell cycle arrest in human HCT116 cells assessed as accumulation at G1 phase at 5 uM after 24 hrs. It counts as functional.
In assay [7] the test system is HL-60. Nature of the assay: Inhibition of cell growth in human HL60 cells. It counts as functional, cell-based.

As for `CC[C@@]12CCCN3CCc4c(n(c5ccccc45)[C@H](c4ccc(O)c5c4N[C@@H]4CC[C@@]6(CC)CCCN7CC[C@@]54[C@H]76)C1)[C@H]32` [BISLEUCONOTHINE A], the IC50 in assay [1] was determined as 9.2 µM; in assay [4], 5.7 µM; in assay [5] it was 7 µM; in assay [7] it was 11 µM. In addition, the Activity in assay [2] was determined as 79.5%; in assay [3] it was 75.1%; in assay [6], 72%.
